Test results reported in PubChem BioAssay AID1918931 (Molecular Pharmacology Branch, DTP, NCI, 2023).

Test system: 138582-337-R-J1-PDC complex spheroid viability
Test: Anticancer human tumor 138582-337-R-J1-PDC patient-derived Merkel cell tumor cell line growth inhibition
Conditions: for IC50: curve of first compound; for viability, T/C: stronger effect = lower value; active = viability on the fitted dose curve at most 10% of control; inactive = the rest
How it was run: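 Complex spheroids of tumor cells with HUVEC and human MSCs, exposed to iadademstat combined with other agents. Each agent tested in half-log steps from near clinical Cmax (else 10 microM top), DMSO ≤0.25%.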

[1] = second compound 0.1 µM, first compound 0.00949 µM
[2] = second compound 0.1 µM, first compound 0.03 µM
[3] = second compound 0.1 µM, first compound 0.0949 µM
[4] = second compound 0.1 µM, first compound 0.3 µM
[5] = second compound 0.316 µM, first compound 0.00949 µM
[6] = second compound 0.316 µM, first compound 0.03 µM
[7] = second compound 0.316 µM, first compound 0.0949 µM
[8] = second compound 0.316 µM, first compound 0.3 µM
[9] = second compound 1 µM, first compound 0.00949 µM
[10] = second compound 1 µM, first compound 0.03 µM
[11] = second compound 1 µM, first compound 0.0949 µM
[12] = second compound 1 µM, first compound 0.3 µM
[13] = second compound 3.16 µM, first compound 0.00949 µM
[14] = second compound 3.16 µM, first compound 0.03 µM
[15] = second compound 3.16 µM, first compound 0.0949 µM
[16] = second compound 3.16 µM, first compound 0.3 µM
[17] = second compound 10 µM, first compound 0.00949 µM
[18] = second compound 10 µM, first compound 0.03 µM
[19] = second compound 10 µM, first compound 0.0949 µM
[20] = second compound 10 µM, first compound 0.3 µM
[21] = second compound 0.1 µM, first compound 0.000316 µM
[22] = second compound 0.1 µM, first compound 0.001 µM
[23] = second compound 0.1 µM, first compound 0.00316 µM
[24] = second compound 0.1 µM, first compound 0.01 µM
[25] = second compound 0.1 µM, first compound 0.0316 µM
[26] = second compound 0.1 µM, first compound 0.1 µM
[27] = second compound 0.316 µM, first compound 0.000316 µM
[28] = second compound 0.316 µM, first compound 0.001 µM
[29] = second compound 0.316 µM, first compound 0.00316 µM
[30] = second compound 0.316 µM, first compound 0.01 µM
[31] = second compound 0.316 µM, first compound 0.0316 µM
[32] = second compound 0.316 µM, first compound 0.1 µM
[33] = second compound 1 µM, first compound 0.000316 µM
[34] = second compound 1 µM, first compound 0.001 µM
[35] = second compound 1 µM, first compound 0.00316 µM
[36] = second compound 1 µM, first compound 0.01 µM
[37] = second compound 1 µM, first compound 0.0316 µM
[38] = second compound 1 µM, first compound 0.1 µM
[39] = second compound 3.16 µM, first compound 0.000316 µM
[40] = second compound 3.16 µM, first compound 0.001 µM
[41] = second compound 3.16 µM, first compound 0.00316 µM
[42] = second compound 3.16 µM, first compound 0.01 µM
[43] = second compound 3.16 µM, first compound 0.0316 µM
[44] = second compound 3.16 µM, first compound 0.1 µM
[45] = second compound 10 µM, first compound 0.000316 µM
[46] = second compound 10 µM, first compound 0.001 µM
[47] = second compound 10 µM, first compound 0.00316 µM
[48] = second compound 10 µM, first compound 0.01 µM
[49] = second compound 10 µM, first compound 0.0316 µM
[50] = second compound 10 µM, first compound 0.1 µM
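For viability, T/C in this document: 100% = DMSO vehicle control viability.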

NS(=O)(=O)OCC1CC(n2ccc3c(NC4CCc5ccccc54)ncnc32)CC1O (stereo not given) + NC1CC1c1ccc(-c2cccc(O)c2)cc1
73.7 nM: IC50 (second compound 0.316 µM)
100 nM: IC50 (second compound 3.16 µM)
inactive: viability, T/C [1] 83.6% | viability, T/C [2] 63.1% | viability, T/C [3] 48.4% | viability, T/C [4] 34.3% | viability, T/C (second compound 0.1 µM, first compound 0.949 µM) 15.5% | viability, T/C (second compound 0.1 µM, first compound 3 µM) 15% | viability, T/C [5] 72.6% | viability, T/C [6] 59% | viability, T/C [7] 48.4% | viability, T/C [8] 34.3% | viability, T/C (second compound 0.316 µM, first compound 0.949 µM) 24.2% | viability, T/C (second compound 0.316 µM, first compound 3 µM) 15.6% | viability, T/C [9] 82.2% | viability, T/C [10] 56.3% | viability, T/C [11] 50.3% | viability, T/C [12] 35.8% | viability, T/C (second compound 1 µM, first compound 0.949 µM) 15.6% | viability, T/C (second compound 1 µM, first compound 3 µM) 14.6% | viability, T/C [13] 86.2% | viability, T/C [14] 63.7% | viability, T/C [15] 51.7% | viability, T/C [16] 40.7% | viability, T/C (second compound 3.16 µM, first compound 0.949 µM) 17.4% | viability, T/C (second compound 3.16 µM, first compound 3 µM) 14% | viability, T/C [17] 103% | viability, T/C [18] 68.1% | viability, T/C [19] 65.6% | viability, T/C [20] 37.1% | viability, T/C (second compound 10 µM, first compound 0.949 µM) 20.4% | viability, T/C (second compound 10 µM, first compound 3 µM) 16.1%
78.9 nM: IC50 (second compound 0.1 µM)
141 nM: IC50 (second compound 10 µM)
72.6 nM: IC50 (second compound 1 µM)

CC(C)CC(NC(=O)C(Cc1ccccc1)NC(=O)c1cnccn1)B(O)O (stereo not given) + NC1CCC(NC2CC2c2ccccc2)CC1
0.842 nM: IC50 (second compound 10 µM)
0.946 nM: IC50 (second compound 1 µM)
0.951 nM: IC50 (second compound 3.16 µM)
1.03 nM: IC50 (second compound 0.1 µM)
active: viability, T/C [23] 0.5% | viability, T/C [24] 0.19% | viability, T/C [25] 0.22% | viability, T/C [26] 0.28% | viability, T/C [29] 0.83% | viability, T/C [30] 0.29% | viability, T/C [31] 0.16% | viability, T/C [32] 0.25% | viability, T/C [35] 0.91% | viability, T/C [36] 0.12% | viability, T/C [37] 0.14% | viability, T/C [38] 0.29% | viability, T/C [41] 1.46% | viability, T/C [42] 0.18% | viability, T/C [43] 0.15% | viability, T/C [44] 0.25% | viability, T/C [47] 0.75% | viability, T/C [48] 0.3% | viability, T/C [49] 0.22% | viability, T/C [50] 0.24%
inactive: viability, T/C [21] 125% | viability, T/C [22] 51.3% | viability, T/C [27] 116% | viability, T/C [28] 50.6% | viability, T/C [33] 114% | viability, T/C [34] 46.8% | viability, T/C [39] 116% | viability, T/C [40] 47% | viability, T/C [45] 105% | viability, T/C [46] 40.3%
1.01 nM: IC50 (second compound 0.316 µM)

CC(C)CC(NC(=O)C(Cc1ccccc1)NC(=O)c1cnccn1)B(O)O (stereo not given) + NC1CC1c1ccc(-c2cccc(O)c2)cc1
0.422 nM: IC50 (second compound 1 µM)
0.511 nM: IC50 (second compound 0.1 µM)
0.406 nM: IC50 (second compound 10 µM)
0.37 nM: IC50 (second compound 3.16 µM)
active: viability, T/C [22] 0.72% | viability, T/C [23] 0.11% | viability, T/C [24] 0.11% | viability, T/C [25] 0.08% | viability, T/C [26] 0.28% | viability, T/C [28] 0.78% | viability, T/C [29] 1.61% | viability, T/C [30] 0.94% | viability, T/C [31] 0.07% | viability, T/C [32] 0.15% | viability, T/C [34] 2.41% | viability, T/C [35] 0.13% | viability, T/C [36] 0.11% | viability, T/C [37] 0.07% | viability, T/C [38] 0.18% | viability, T/C [40] 2.76% | viability, T/C [41] 0.12% | viability, T/C [42] 0.32% | viability, T/C [43] 0.11% | viability, T/C [44] 0.17% | viability, T/C [46] 4.98% | viability, T/C [47] 1.52% | viability, T/C [48] 1.12% | viability, T/C [49] 1.32% | viability, T/C [50] 0.55%
0.476 nM: IC50 (second compound 0.316 µM)
inactive: viability, T/C [21] 85.2% | viability, T/C [27] 77% | viability, T/C [33] 66% | viability, T/C [39] 57.5% | viability, T/C [45] 62.5%

Nc1ncn(C2CC(O)C(CO)S2)c(=O)n1 (stereo not given) + NC1CCC(NC2CC2c2ccccc2)CC1
inactive: viability, T/C (second compound 0.1 µM, first compound 0.000949 µM) 98.9% | viability, T/C (second compound 0.1 µM, first compound 0.003 µM) 105% | viability, T/C [1] 101% | viability, T/C [2] 102% | viability, T/C [3] 106% | viability, T/C [4] 93.5% | viability, T/C (second compound 0.316 µM, first compound 0.000949 µM) 95% | viability, T/C (second compound 0.316 µM, first compound 0.003 µM) 93.9% | viability, T/C [5] 96.4% | viability, T/C [6] 95.4% | viability, T/C [7] 94.5% | viability, T/C [8] 108% | viability, T/C (second compound 1 µM, first compound 0.000949 µM) 90.9% | viability, T/C (second compound 1 µM, first compound 0.003 µM) 103% | viability, T/C [9] 107% | viability, T/C [10] 87.8% | viability, T/C [11] 81% | viability, T/C [12] 100% | viability, T/C (second compound 3.16 µM, first compound 0.000949 µM) 89.2% | viability, T/C (second compound 3.16 µM, first compound 0.003 µM) 96% | viability, T/C [13] 88% | viability, T/C [14] 78.4% | viability, T/C [15] 93.5% | viability, T/C [16] 84.7% | viability, T/C (second compound 10 µM, first compound 0.000949 µM) 80.1% | viability, T/C (second compound 10 µM, first compound 0.003 µM) 80.4% | viability, T/C [17] 91.4% | viability, T/C [18] 87.5% | viability, T/C [19] 78.6% | viability, T/C [20] 85%
> 300 nM: IC50 (second compound 0.1 µM) | IC50 (second compound 0.316 µM) | IC50 (second compound 1 µM) | IC50 (second compound 3.16 µM) | IC50 (second compound 10 µM)
